The record followed here is patent US10221160B2, “Metalloenzyme inhibitor compounds” (Mycovia Pharmaceuticals, Inc., priority 2012, dated 2019).

≈ marks a conversion by molar mass, not a printed value.

One experiment relates to C. albicans. In words: Minimum Inhibitory Concentration (MIC), CLSI M27-A2. The class given is cell-based. The following applies: Candida albicans, 48 h, about 50% growth reduction, approximately 48 h at 35 °C, read-out: Candida MIC. The procedure: A. Minimum Inhibitory Concentration (MIC) Compounds were assessed for their ability to inhibit the growth of common strains of fungus, C. albicans using a standardized procedure (CLSI M27-A2). Stock solutions of the test compounds and standards were prepared in DMSO at 1,600 μg/mL (C. albicans). Eleven, serial, one-half dilutions of compounds were prepared in 96-well plates in RPMI+MOPS. The assay concentration ranges were 8-0.001 μg/mL (C. albicans). Cell suspensions of C. albicans were prepared and added to each well at concentrations of approximately 3.7×10^3 colony-forming-units per milliliter (cfu/mL). All testing was in duplicate. The inoculated plates were incubated for approximately 48 h at 35±1° C. At the completion of incubation the wells of each plate were evaluated visually for the presence of fungal growth. […] For QC purposes C. krusei isolate ATCC 6258 (4.0×10^3 cfu/mL) was included in the VOR assay.
In the case of `N#Cc1ccc(-c2ccc(C(F)(F)C(O)(Cn3cnnn3)c3ccc(F)cc3F)nc2)cc1` (stereo not shown) [Example 1, 4-(6-(2-(2,4-Difluorophenyl)-1,1-difluoro-2-hydroxy-3-(1H-tetrazol-1-yl)propyl)pyridin-3-yl)benzonitrile], the MIC was not above 0.016 µg/mL.

The experiment is the same for the next values; noted with them: Candida albicans, rating scale, read-out: Candida MIC Rating.
With `N#Cc1ccc(-c2ccc(C(F)(F)C(O)(Cn3cnnn3)c3ccc(F)cc3F)nc2)cc1` (stereo not shown) [Example 1, 4-(6-(2-(2,4-Difluorophenyl)-1,1-difluoro-2-hydroxy-3-(1H-tetrazol-1-yl)propyl)pyridin-3-yl)benzonitrile], the MIC was less than 0.5 µg/mL.
Turning to `N#Cc1cccc(-c2ccc(C(F)(F)C(O)(Cn3cnnn3)c3ccc(F)cc3F)nc2)c1` (stereo not shown) [Example 3, 3-(6-(2-(2,4-Difluorophenyl)-1,1-difluoro-2-hydroxy-3-(1H-tetrazol-1-yl)propyl)pyridin-3-yl)benzonitrile], the minimum inhibitory concentration (MIC) is less than 0.5 µg/mL.
With `CC(C)Oc1ccc(-c2ccc(C(F)(F)C(O)(Cn3cnnn3)c3ccc(F)cc3F)nc2)cc1` (stereo not shown) [Example 4, 2-(2,4-Difluorophenyl)-1,1-difluoro-1-(5-(4-isopropoxyphenyl)pyridin-2-yl)-3-(1H-tetrazol-1-yl)propan-2-ol], the MIC was less than 0.5 µg/mL.
Take `OC(Cn1cnnn1)(c1ccc(F)cc1F)C(F)(F)c1ccc(-c2ccc(F)cc2)cn1` (stereo not shown) [Example 5, 2-(2,4-Difluorophenyl)-1,1-difluoro-1-(5-(4-fluorophenyl)pyridin-2-yl)-3-(1H-tetrazol-1-yl)propan-2-ol]: the MIC was less than 0.5 µg/mL.
Take `OC(Cn1cnnn1)(c1ccc(F)cc1F)C(F)(F)c1ccc(-c2cccc(OC(F)(F)F)c2)cn1` (stereo not shown) [Example 6, 2-(2,4-Difluorophenyl)-1,1-difluoro-3-(1H-tetrazol-1-yl)-1-(5-(3-(trifluoromethoxy)phenyl)pyridin-2-yl)propan-2-ol]: the minimal inhibitory concentration (MIC) is less than 0.5 µg/mL.
On the same count and under the same terms, as for `OC(Cn1cnnn1)(c1ccc(F)cc1F)C(F)(F)c1ccc(-c2ccc(OC(F)(F)F)cc2)cn1` (stereo not shown) [Example 7, 2-(2,4-Difluorophenyl)-1,1-difluoro-3-(1H-tetrazol-1-yl)-1-(5-(4-(trifluoromethoxy)phenyl)pyridin-2-yl) propan-2-ol], the figure is less than 0.5 µg/mL; as for `OC(Cn1cnnn1)(c1ccc(F)cc1F)C(F)(F)c1ccc(-c2cccc(Cl)c2)cn1` (stereo not shown) [Example 8, 1-(5-(3-Chlorophenyl)pyridin-2-yl)-2-(2,4-difluorophenyl)-1,1-difluoro-3-(1H-tetrazol-1-yl)propan-2-ol], less than 0.5 µg/mL.
On the same count and under the same terms, then `OC(Cn1cnnn1)(c1ccc(F)cc1F)C(F)(F)c1ccc(-c2ccc(Cl)cc2)cn1` (stereo not shown) [Example 9, 1-(5-(4-Chlorophenyl)pyridin-2-yl)-2-(2,4-difluorophenyl)-1,1-difluoro-3-(1H-tetrazol-1-yl)propan-2-ol], with less than 0.5 µg/mL; and `OC(Cn1cnnn1)(c1ccc(F)cc1F)C(F)(F)c1ccc(-c2cc(F)ccc2F)cn1` (stereo not shown) [Example 10, 2-(2,4-Difluorophenyl)-1-(5-(2,5-difluorophenyl)pyridin-2-yl)-1,1-difluoro-3-(1H-tetrazol-1-yl)propan-2-ol], with less than 0.5 µg/mL.
The same measure, in the same setting: then `OC(Cn1cncn1)(c1ccc(F)cc1F)C(F)(F)c1ccc(-c2ccc(F)cc2)cn1` (stereo not shown) [Example 16, 2-(2,4-Difluorophenyl)-1,1-difluoro-1-(5-(4-fluorophenyl)pyridin-2-yl)-3-(1H-1,2,4-triazol-1-yl)propan-2-ol], with less than 0.5 µg/mL.
For `OC(Cn1cncn1)(c1ccc(F)cc1F)C(F)(F)c1ccc(-c2ccc(OC(F)(F)F)cc2)cn1` (stereo not shown) [Example 18, 2-(2,4-Difluorophenyl)-1,1-difluoro-3-(1H-1,2,4-triazol-1-yl)-1-(5-(4-(trifluoromethoxy)phenyl)pyridin-2-yl) propan-2-ol], the minimal inhibitory concentration (MIC) was less than 0.5 µg/mL.
As to `OC(Cn1ncnn1)(c1ccc(F)cc1F)C(F)(F)c1ccc(-c2ccc(OCC(F)(F)F)cc2)cn1` (stereo not shown) [Example 20, 2-(2,4-Difluorophenyl)-1,1-difluoro-3-(2H-tetrazol-1-yl)-1-(5-(4-(2,2,2-trifluoroethoxy)phenyl)pyridin-2-yl)propan-2-ol], the minimal inhibitory concentration (MIC) is more than 4 µg/mL.
On the same count and under the same terms, then `OC(Cn1ncnn1)(c1ccc(F)cc1F)C(F)(F)c1ccc(-c2cccc(F)c2)cn1` (stereo not shown) [Example 21], with 1.5 to 4 µg/mL (≈ 3.35 to 8.94 µM); and `OC(Cn1ncnn1)(c1ccc(F)cc1F)C(F)(F)c1ccc(-c2ccc(C(F)(F)F)cc2)cn1` (stereo not shown) [Example 22], with 1.5 to 4 µg/mL (≈ 3.02 to 8.04 µM).
Same read-out and setting: as for `Oc1ccc(-c2ccc(C(F)(F)C(O)(Cn3cnnn3)c3ccc(F)cc3F)nc2)cc1` (stereo not shown) [Example 23, 4-(6-(2-(2,4-Difluorophenyl)-1,1-difluoro-2-hydroxy-3-(1H-tetrazol-1-yl)propyl)pyridin-3-yl)phenol], the figure is less than 0.5 µg/mL; as for `CC(C)c1cccc(-c2ccc(C(F)(F)C(O)(Cn3cnnn3)c3ccc(F)cc3F)nc2)c1` (stereo not shown) [Example 24, 2-(2,4-Difluorophenyl)-1,1-difluoro-1-(5-(3-isopropylphenyl)pyridin-2-yl)-3-(1H-tetrazol-1-yl)propan-2-ol], less than 0.5 µg/mL; as for `OC(Cn1cnnn1)(c1ccc(F)cc1F)C(F)(F)c1ccc(-c2ccc(F)c(F)c2)cn1` (stereo not shown) [Example 25, 2-(2,4-Difluorophenyl)-1-(5-(3,4-difluorophenyl)pyridin-2-yl)-1,1-difluoro-3-(1H-tetrazol-1-yl)propan-2-ol], less than 0.5 µg/mL.
Still for that read-out and setting: as for `OC(Cn1cnnn1)(c1ccc(F)cc1F)C(F)(F)c1ccc(-c2cccc(OC(F)F)c2)cn1` (stereo not shown) [Example 26, 1-(5-(3-(Difluoromethoxy)phenyl)pyridin-2-yl)-2-(2,4-difluorophenyl)-1,1-difluoro-3-(1H-tetrazol-1-yl)propan-2-ol], the figure is less than 0.5 µg/mL; as for `OC(Cn1cnnn1)(c1ccc(F)cc1F)C(F)(F)c1ccc(-c2ccc(SC(F)(F)F)cc2)cn1` (stereo not shown) [Example 27, 2-(2,4-Difluorophenyl)-1,1-difluoro-3-(1H-tetrazol-1-yl)-1-(5-(4-((trifluoromethyl)thio)phenyl)pyridin-2-yl)propan-2-ol], less than 0.5 µg/mL.
Turning to `CC(C)(C)Oc1ccc(-c2ccc(C(F)(F)C(O)(Cn3cnnn3)c3ccc(F)cc3F)nc2)cc1` (stereo not shown) [Example 28, 1-(5-(4-(tert-Butoxy)phenyl)pyridin-2-yl)-2-(2,4-difluorophenyl)-1,1-difluoro-3-(1H-tetrazol-1-yl)propan-2-ol], the MIC was less than 0.5 µg/mL.
The same measure, in the same setting: as for `OC(Cn1cnnn1)(c1ccc(F)cc1F)C(F)(F)c1ccc(-c2ccc(Cl)c(F)c2)cn1` (stereo not shown) [Example 29, 1-(5-(4-Chloro-3-fluorophenyl)pyridin-2-yl)-2-(2,4-difluorophenyl)-1,1-difluoro-3-(1H-tetrazol-1-yl)propan-2-ol], the figure is less than 0.5 µg/mL.

Still in this experiment, the particulars now being: Candida albicans, read-out: Candida MIC Rating.
Regarding `OC(Cn1cnnn1)(c1ccc(F)cc1F)C(F)(F)c1ccc(-c2ccc(OCC(F)(F)C(F)(F)F)cc2)cn1` (stereo not shown) [Example 12, 2-(2,4-Difluorophenyl)-1,1-difluoro-1-(5-(4-(2,2,3,3,3-pentafluoropropoxy)phenyl)pyridin-2-yl)-3-(1H-tetrazol-1-yl)propan-2-ol], the MIC was less than 0.5 µg/mL.
Still for that read-out and setting: as for `OC(Cc1cc[nH]n1)(c1ccc(F)cc1F)C(F)(F)c1ccc(-c2ccc(OC(F)(F)F)cc2)cn1` (stereo not shown) [Example 15, 2-(2,4-Difluorophenyl)-1,1-difluoro-3-(1H-pyrazol-3-yl)-1-(5-(4-(trifluoromethoxy)phenyl)pyridin-2-yl)propan-2-ol], the figure is less than 0.5 µg/mL.

Still in this experiment, the particulars now being: rating scale.
In the case of `OC(Cn1cnnn1)(c1ccc(F)cc1F)C(F)(F)c1ccc(-c2ccc(OCC(F)(F)F)cc2)cn1` (stereo not shown) [Example 11, 2-(2,4-Difluorophenyl)-1,1-difluoro-3-(1H-tetrazol-1-yl)-1-(5-(4-(2,2,2-trifluoroethoxy)phenyl)pyridin-2-yl)propan-2-ol], the “Candida MIC Rating” value was “A (≤0.5)”.

The MIC is the least concentration at which growth counts as inhibited.
